Test results from ChEMBL document CHEMBL5055633, “Amphipathic Barbiturates as Mimics of Antimicrobial Peptides and the Marine Natural Products Eusynstyelamides with Activity against Multi-resistant Clinical Isolates” (J Med Chem, 2021).

Tests used:
HepG2 = test: Cytotoxicity against human HepG2 cells assessed as reduction in cell viability incubated for 24 hrs by colorimetric tetrazolium assay; format: functional, cell-based; settings: HepG2, 24 h
[1] = Hemolytic activity in human erythrocytes incubated for 1 hr by microplate reader; format: functional, cell-based; settings: erythrocyte
Pseudomonas aeruginosa [2] = test: Antimicrobial activity against Pseudomonas aeruginosa PAO1 assessed as reduction in bacterial growth incubated for 48 hrs by microdilution susceptibility test; format: functional
Escherichia coli [3] = test: Antimicrobial activity against Escherichia coli ATCC 25922 assessed as reduction in bacterial growth incubated for 48 hrs by microdilution susceptibility test; format: functional
[4] = test system: Corynebacterium glutamicum; test: Antimicrobial activity against Corynebacterium glutamicum ATCC 13032 assessed as reduction in bacterial growth incubated for 48 hrs by microdilution susceptibility test; format: functional
Staphylococcus aureus [5] = test: Antimicrobial activity against Staphylococcus aureus ATCC 9144 assessed as reduction in bacterial growth incubated for 48 hrs by microdilution susceptibility test; format: functional
MRC5 = test: Cytotoxicity against human MRC5 cells assessed as reduction in cell viability incubated for 24 hrs by colorimetric tetrazolium assay; format: functional, cell-based; settings: MRC5, 24 h
Staphylococcus aureus [6] = test: Antimicrobial activity against extended spectrum-lactamase-carbapenemas producing Staphylococcus aureus N315 assessed as reduction in bacterial growth incubated for 48 hrs by microdilution method; format: functional
Staphylococcus aureus [7] = test: Antimicrobial activity against extended spectrum-lactamase-carbapenemas producing Staphylococcus aureus NCTC 10442 assessed as reduction in bacterial growth incubated for 48 hrs by microdilution method; format: functional
Staphylococcus aureus [8] = test: Antimicrobial activity against extended spectrum-lactamase-carbapenemas producing Staphylococcus aureus strain 85/2082 assessed as reduction in bacterial growth incubated for 48 hrs by microdilution method; format: functional
Staphylococcus aureus [9] = test: Antimicrobial activity against extended spectrum-lactamase-carbapenemas producing Staphylococcus aureus strain WIS assessed as reduction in bacterial growth incubated for 48 hrs by microdilution method; format: functional
Staphylococcus aureus [10] = test: Antimicrobial activity against extended spectrum-lactamase-carbapenemas producing Staphylococcus aureus strain IHT 99040 assessed as reduction in bacterial growth incubated for 48 hrs by microdilution method; format: functional
Enterococcus faecium [11] = test: Antimicrobial activity against extended spectrum-lactamase-carbapenemas producing Enterococcus faecium strain 50673722 assessed as reduction in bacterial growth incubated for 48 hrs by microdilution method; format: functional
Enterococcus faecium [12] = test: Antimicrobial activity against extended spectrum-lactamase-carbapenemas producing Enterococcus faecium strain 50901530 assessed as reduction in bacterial growth incubated for 48 hrs by microdilution method; format: functional
Enterococcus faecium [13] = test: Antimicrobial activity against extended spectrum-lactamase-carbapenemas producing Enterococcus faecium strain K36-18 assessed as reduction in bacterial growth incubated for 48 hrs by microdilution method; format: functional
Enterococcus faecium [14] = test: Antimicrobial activity against extended spectrum-lactamase-carbapenemas producing Enterococcus faecium strain 50758899 assessed as reduction in bacterial growth incubated for 48 hrs by microdilution method; format: functional
Enterococcus faecium [15] = test: Antimicrobial activity against extended spectrum-lactamase-carbapenemas producing Enterococcus faecium strain TUH.50-22 assessed as reduction in bacterial growth incubated for 48 hrs by microdilution method; format: functional
Escherichia coli [16] = test: Antimicrobial activity against oxacillinase-producing Escherichia coli 50579417 assessed as reduction in bacterial growth incubated for 48 hrs by microdilution method; format: functional
Escherichia coli [17] = test: Antimicrobial activity against verona integron-encoded metallo-beta-lactamase-29-producing Escherichia coli 50639799 assessed as reduction in bacterial growth incubated for 48 hrs by microdilution method; format: functional
Escherichia coli [18] = test: Antimicrobial activity against New Delhi metallo-beta lactamase-1 producing Escherichia coli 50676002 assessed as reduction in bacterial growth incubated for 48 hrs by microdilution method; format: functional
Escherichia coli [19] = test: Antimicrobial activity against New Delhi metallo-beta lactamase-1 producing Escherichia coli 50739822 assessed as reduction in bacterial growth incubated for 48 hrs by microdilution method; format: functional
Escherichia coli [20] = test: Antimicrobial activity against imipenem-type carbapenemase-26 producing Escherichia coli 50857972 assessed as reduction in bacterial growth incubated for 48 hrs by microdilution method; format: functional
Pseudomonas aeruginosa [21] = test: Antimicrobial activity against verona integron-encoded metallo-beta-lactamase-2 producing Pseudomonas aeruginosa K34-7 assessed as reduction in bacterial growth incubated for 48 hrs by microdilution method; format: functional
Pseudomonas aeruginosa [22] = test: Antimicrobial activity against verona integron-encoded metallo-beta-lactamase-4 producing Pseudomonas aeruginosa K34-73 assessed as reduction in bacterial growth incubated for 48 hrs by microdilution method; format: functional
Pseudomonas aeruginosa [23] = test: Antimicrobial activity against imipenem-type carbapenemase-14 producing Pseudomonas aeruginosa K44-24 assessed as reduction in bacterial growth incubated for 48 hrs by microdilution method; format: functional
Pseudomonas aeruginosa [24] = test: Antimicrobial activity against New Delhi metallo-beta lactamase-1 producing Pseudomonas aeruginosa 50692172 assessed as reduction in bacterial growth incubated for 48 hrs by microdilution method; format: functional
Pseudomonas aeruginosa [25] = test: Antimicrobial activity against verona integron-encoded metallo-beta-lactamase producing Pseudomonas aeruginosa 50692520 assessed as reduction in bacterial growth incubated for 48 hrs by microdilution method; format: functional
[26] = Antimicrobial activity against carbapenemase producing Klebsiella pneumoniae K47-25 assessed as reduction in bacterial growth incubated for 48 hrs by microdilution method; format: functional
[27] = Antimicrobial activity against New Delhi metallo-beta lactamase-1 Klebsiella pneumoniae K66-45 assessed as reduction in bacterial growth incubated for 48 hrs by microdilution method; format: functional
[28] = Antimicrobial activity against New Delhi metallo-beta lactamase-1 and oxacillinase -181 producing Klebsiella pneumoniae 50531633 assessed as reduction in bacterial growth incubated for 48 hrs by microdilution method; format: functional
[29] = Antimicrobial activity against oxacillinase-245 producing Klebsiella pneumoniae 50625602 assessed as reduction in bacterial growth incubated for 48 hrs by microdilution method; format: functional
[30] = Antimicrobial activity against verona integron-encoded metallo-beta-lactamase -1 producing Klebsiella pneumoniae 50667959 assessed as reduction in bacterial growth incubated for 48 hrs by microdilution method; format: functional
Acinetobacter baumannii [31] = test: Antimicrobial activity against oxacillinase-58 producing Acinetobacter baumannii K12-21 assessed as reduction in bacterial growth incubated for 48 hrs by microdilution method; format: functional
Acinetobacter baumannii [32] = test: Antimicrobial activity against oxacillinase-23 producing Acinetobacter baumannii K44-35 assessed as reduction in bacterial growth incubated for 48 hrs by microdilution method; format: functional
Acinetobacter baumannii [33] = test: Antimicrobial activity against oxacillinase-23 producing Acinetobacter baumannii K47-42 assessed as reduction in bacterial growth incubated for 48 hrs by microdilution method; format: functional
Acinetobacter baumannii [34] = test: Antimicrobial activity against oxacillinase-24 producing Acinetobacter baumannii K55-13 assessed as reduction in bacterial growth incubated for 48 hrs by microdilution method; format: functional
Acinetobacter baumannii [35] = test: Antimicrobial activity against oxacillinase-23 producing Acinetobacter baumannii K63-58 assessed as reduction in bacterial growth incubated for 48 hrs by microdilution method; format: functional

Row | SMILES | IC50 (HepG2) [µg/mL] | EC50 [1] [µg/mL] | MIC (Pseudomonas aeruginosa [2]) [µg/mL] | MIC (Escherichia coli [3]) [µg/mL] | MIC [4] [µg/mL] | MIC (Staphylococcus aureus [5]) [µg/mL] | IC50 (MRC5) [µg/mL] | MIC (Staphylococcus aureus [6]) [µg/mL] | MIC (Staphylococcus aureus [7]) [µg/mL] | MIC (Staphylococcus aureus [8]) [µg/mL] | MIC (Staphylococcus aureus [9]) [µg/mL] | MIC (Staphylococcus aureus [10]) [µg/mL] | MIC (Enterococcus faecium [11]) [µg/mL] | MIC (Enterococcus faecium [12]) [µg/mL] | MIC (Enterococcus faecium [13]) [µg/mL] | MIC (Enterococcus faecium [14]) [µg/mL] | MIC (Enterococcus faecium [15]) [µg/mL] | MIC (Escherichia coli [16]) [µg/mL] | MIC (Escherichia coli [17]) [µg/mL] | MIC (Escherichia coli [18]) [µg/mL] | also measured
1 | CC(C)(C)c1cc(CC2(Cc3cc(C(C)(C)C)cc(C(C)(C)C)c3)C(=O)N(CCCCN)C(=O)N(CCCCN)C2=O)cc(C(C)(C)C)c1.O=C(O)C(F)(F)F.O=C(O)C(F)(F)F | 2 | < 5 | 4 | 2 | 0.25 | 1 | 1 | 2 | 2 | 2 | 2 | 2 | 2 | 2 | 2 | 2 | 2 | 4 | 4 | 8 | MIC (Escherichia coli [19]): 4 µg/mL; MIC (Escherichia coli [20]): 4 µg/mL; MIC (Pseudomonas aeruginosa [21]): 8 µg/mL; MIC (Pseudomonas aeruginosa [22]): 16 µg/mL; MIC (Pseudomonas aeruginosa [23]): 8 µg/mL; MIC (Pseudomonas aeruginosa [24]): 8 µg/mL; MIC (Pseudomonas aeruginosa [25]): 8 µg/mL; MIC [26]: 16 µg/mL; MIC [27]: 8 µg/mL; MIC [28]: 8 µg/mL; MIC [29]: 8 µg/mL; MIC [30]: 8 µg/mL; MIC (Acinetobacter baumannii [31]): 4 µg/mL; MIC (Acinetobacter baumannii [32]): 4 µg/mL; MIC (Acinetobacter baumannii [33]): 4 µg/mL; MIC (Acinetobacter baumannii [34]): 4 µg/mL; MIC (Acinetobacter baumannii [35]): 4 µg/mL
2 | N=C(N)NCCCCN1C(=O)N(CCCCNC(=N)N)C(=O)C(Cc2ccc(F)c3ccccc23)(Cc2ccc(F)c3ccccc23)C1=O.O=C(O)C(F)(F)F.O=C(O)C(F)(F)F | 56 | 90 | 4 | 1 | 0.25 | 1 | 23 | 2 | 2 | 2 | 2 | 2 | 4 | 4 | 4 | 4 | 4 | 8 | 4 | 4 | MIC (Escherichia coli [19]): 8 µg/mL; MIC (Escherichia coli [20]): 4 µg/mL; MIC (Pseudomonas aeruginosa [21]): 16 µg/mL; MIC (Pseudomonas aeruginosa [22]): 8 µg/mL; MIC (Pseudomonas aeruginosa [23]): 16 µg/mL; MIC (Pseudomonas aeruginosa [24]): 16 µg/mL; MIC (Pseudomonas aeruginosa [25]): 16 µg/mL; MIC [26]: 8 µg/mL; MIC [27]: 4 µg/mL; MIC [28]: 8 µg/mL; MIC [29]: 16 µg/mL; MIC [30]: 4 µg/mL; MIC (Acinetobacter baumannii [31]): 8 µg/mL; MIC (Acinetobacter baumannii [32]): 8 µg/mL; MIC (Acinetobacter baumannii [33]): 8 µg/mL; MIC (Acinetobacter baumannii [34]): 8 µg/mL; MIC (Acinetobacter baumannii [35]): 8 µg/mL
3 | N=C(N)NCCCCN1C(=O)N(CCCCNC(=N)N)C(=O)C(Cc2ccc3ccccc3c2)(Cc2ccc3ccccc3c2)C1=O.O=C(O)C(F)(F)F.O=C(O)C(F)(F)F | 59 | 133 | 8 | 1 | 0.25 | 1 | 30 | 8 | 8 | 8 | 8 | 8 | 16 | 8 | 16 | 16 | 8 | 16 | 8 | 8 | MIC (Escherichia coli [19]): 8 µg/mL; MIC (Escherichia coli [20]): 8 µg/mL; MIC (Pseudomonas aeruginosa [21]): 32 µg/mL; MIC (Pseudomonas aeruginosa [22]): 32 µg/mL; MIC (Pseudomonas aeruginosa [23]): 32 µg/mL; MIC (Pseudomonas aeruginosa [24]): 32 µg/mL; MIC (Pseudomonas aeruginosa [25]): 32 µg/mL; MIC [26]: 16 µg/mL; MIC [27]: 16 µg/mL; MIC [28]: 16 µg/mL; MIC [29]: 16 µg/mL; MIC [30]: 16 µg/mL; MIC (Acinetobacter baumannii [31]): 32 µg/mL; MIC (Acinetobacter baumannii [32]): 32 µg/mL; MIC (Acinetobacter baumannii [33]): 32 µg/mL; MIC (Acinetobacter baumannii [34]): 32 µg/mL; MIC (Acinetobacter baumannii [35]): 32 µg/mL
